Data from ChEMBL document CHEMBL5291721, “A preclinical secondary pharmacology resource illuminates target-adverse drug reaction associations of marketed drugs” (Nat Commun, 2023).

Columns and labels:
Cannabinoid receptor 1 = Cannabinoid receptor 1 (Homo sapiens, UniProt P21554); type: functional, cell-based
Adenosine receptor A3 = target: T1, Adenosine receptor A3 (Homo sapiens, UniProt P0DMS8)
T1 sequence (P0DMS8 whole entry): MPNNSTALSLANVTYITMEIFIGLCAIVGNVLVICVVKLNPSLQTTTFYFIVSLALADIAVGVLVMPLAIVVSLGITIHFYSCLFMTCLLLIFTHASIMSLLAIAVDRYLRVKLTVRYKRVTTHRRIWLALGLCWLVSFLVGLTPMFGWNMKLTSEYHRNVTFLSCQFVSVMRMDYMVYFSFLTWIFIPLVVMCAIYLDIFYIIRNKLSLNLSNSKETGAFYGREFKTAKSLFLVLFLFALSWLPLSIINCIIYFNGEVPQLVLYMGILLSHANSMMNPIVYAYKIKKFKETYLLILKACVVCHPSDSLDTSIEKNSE

[1] = target: T2, Muscarinic acetylcholine receptor M2 (Homo sapiens, UniProt P08172)
T2 sequence (P08172 whole entry): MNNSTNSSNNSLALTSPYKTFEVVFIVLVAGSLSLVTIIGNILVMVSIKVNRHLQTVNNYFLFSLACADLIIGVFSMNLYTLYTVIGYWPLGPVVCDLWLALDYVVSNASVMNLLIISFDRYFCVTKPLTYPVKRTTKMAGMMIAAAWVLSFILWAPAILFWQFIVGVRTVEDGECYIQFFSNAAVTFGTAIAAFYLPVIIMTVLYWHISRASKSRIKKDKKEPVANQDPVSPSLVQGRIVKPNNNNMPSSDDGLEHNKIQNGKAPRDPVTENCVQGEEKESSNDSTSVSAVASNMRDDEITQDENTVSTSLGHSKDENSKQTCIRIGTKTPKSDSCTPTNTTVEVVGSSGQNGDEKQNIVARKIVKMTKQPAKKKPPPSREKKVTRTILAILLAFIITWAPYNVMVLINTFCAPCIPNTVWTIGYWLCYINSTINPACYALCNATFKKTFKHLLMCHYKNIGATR

Acetylcholinesterase = Acetylcholinesterase (Homo sapiens, UniProt P22303); type: functional
[2] = target: Prostaglandin G/H synthase 1 (Homo sapiens, UniProt P23219); type: functional
[3] = target: Sodium-dependent noradrenaline transporter (Homo sapiens, UniProt P23975)
[4] = target: 3',5'-cyclic-AMP phosphodiesterase 4A (Homo sapiens, UniProt P27815); type: functional
[5] = target: T3, Amine oxidase [flavin-containing] A (Homo sapiens, UniProt P21397); type: functional
T3 sequence (P21397 whole entry): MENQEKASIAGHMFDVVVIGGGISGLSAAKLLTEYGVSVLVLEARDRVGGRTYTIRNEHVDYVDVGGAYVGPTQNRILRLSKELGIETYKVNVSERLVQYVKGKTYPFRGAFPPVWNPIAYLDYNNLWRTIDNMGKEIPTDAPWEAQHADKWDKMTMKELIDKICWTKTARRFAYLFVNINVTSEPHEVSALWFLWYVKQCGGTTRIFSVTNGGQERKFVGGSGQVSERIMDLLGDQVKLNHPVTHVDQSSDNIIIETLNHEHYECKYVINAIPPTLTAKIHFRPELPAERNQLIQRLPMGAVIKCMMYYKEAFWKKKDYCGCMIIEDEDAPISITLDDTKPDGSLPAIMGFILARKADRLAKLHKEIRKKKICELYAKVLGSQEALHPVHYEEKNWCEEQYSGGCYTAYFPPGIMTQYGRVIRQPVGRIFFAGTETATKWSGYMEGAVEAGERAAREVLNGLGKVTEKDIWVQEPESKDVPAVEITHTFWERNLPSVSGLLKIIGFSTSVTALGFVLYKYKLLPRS

Prothrombin = Prothrombin (Homo sapiens, UniProt P00734); type: functional
Mu-type opioid receptor = Mu-type opioid receptor (Homo sapiens, UniProt P35372)
D(1A) dopamine receptor = D(1A) dopamine receptor (Homo sapiens, UniProt P21728)
[6] = target: T4, Alpha-1A adrenergic receptor (Homo sapiens, UniProt P35348); type: functional, cell-based
T4 sequence (P35348 whole entry): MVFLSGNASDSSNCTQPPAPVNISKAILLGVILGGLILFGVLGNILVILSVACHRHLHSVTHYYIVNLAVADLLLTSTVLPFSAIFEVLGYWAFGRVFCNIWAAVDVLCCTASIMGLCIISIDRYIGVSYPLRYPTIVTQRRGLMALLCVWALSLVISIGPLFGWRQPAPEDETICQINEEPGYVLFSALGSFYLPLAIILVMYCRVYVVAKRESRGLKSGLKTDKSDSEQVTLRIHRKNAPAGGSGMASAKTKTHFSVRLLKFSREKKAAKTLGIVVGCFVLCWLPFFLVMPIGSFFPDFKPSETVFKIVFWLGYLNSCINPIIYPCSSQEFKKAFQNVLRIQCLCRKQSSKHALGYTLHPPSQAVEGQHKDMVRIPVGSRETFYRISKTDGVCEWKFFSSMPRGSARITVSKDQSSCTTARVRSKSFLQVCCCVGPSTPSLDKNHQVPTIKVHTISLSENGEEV
Further: assay procedure not described here.

Sequence of Sodium-dependent noradrenaline transporter (P23975 whole entry): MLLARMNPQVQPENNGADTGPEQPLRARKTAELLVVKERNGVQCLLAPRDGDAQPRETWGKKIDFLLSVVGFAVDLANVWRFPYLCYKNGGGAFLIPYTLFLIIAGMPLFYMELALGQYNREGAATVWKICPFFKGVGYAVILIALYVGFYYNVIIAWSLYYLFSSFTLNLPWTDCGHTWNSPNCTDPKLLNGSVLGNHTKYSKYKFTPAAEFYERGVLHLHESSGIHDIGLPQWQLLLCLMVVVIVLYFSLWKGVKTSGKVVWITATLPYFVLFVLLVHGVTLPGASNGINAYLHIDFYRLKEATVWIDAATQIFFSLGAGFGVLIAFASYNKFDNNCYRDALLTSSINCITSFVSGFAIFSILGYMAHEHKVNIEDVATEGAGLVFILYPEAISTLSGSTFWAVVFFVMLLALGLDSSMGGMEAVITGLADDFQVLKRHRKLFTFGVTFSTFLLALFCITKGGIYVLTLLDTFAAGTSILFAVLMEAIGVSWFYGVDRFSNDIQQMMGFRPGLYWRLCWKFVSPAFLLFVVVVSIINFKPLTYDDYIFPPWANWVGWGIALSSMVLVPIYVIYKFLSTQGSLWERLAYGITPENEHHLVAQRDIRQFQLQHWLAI
Sequence of D(1A) dopamine receptor (P21728 whole entry): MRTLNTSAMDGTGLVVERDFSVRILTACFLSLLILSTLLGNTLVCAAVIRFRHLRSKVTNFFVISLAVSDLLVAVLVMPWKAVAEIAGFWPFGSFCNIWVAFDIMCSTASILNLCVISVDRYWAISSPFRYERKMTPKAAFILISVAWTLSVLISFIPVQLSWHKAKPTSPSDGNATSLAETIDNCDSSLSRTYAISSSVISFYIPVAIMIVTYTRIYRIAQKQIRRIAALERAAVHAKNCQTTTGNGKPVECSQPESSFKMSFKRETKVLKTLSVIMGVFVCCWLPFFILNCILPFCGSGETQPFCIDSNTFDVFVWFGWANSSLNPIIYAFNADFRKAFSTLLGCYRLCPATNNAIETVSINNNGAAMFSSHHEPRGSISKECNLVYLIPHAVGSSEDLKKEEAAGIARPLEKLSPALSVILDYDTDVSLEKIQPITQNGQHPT
Sequence of 3',5'-cyclic-AMP phosphodiesterase 4A (P27815 whole entry): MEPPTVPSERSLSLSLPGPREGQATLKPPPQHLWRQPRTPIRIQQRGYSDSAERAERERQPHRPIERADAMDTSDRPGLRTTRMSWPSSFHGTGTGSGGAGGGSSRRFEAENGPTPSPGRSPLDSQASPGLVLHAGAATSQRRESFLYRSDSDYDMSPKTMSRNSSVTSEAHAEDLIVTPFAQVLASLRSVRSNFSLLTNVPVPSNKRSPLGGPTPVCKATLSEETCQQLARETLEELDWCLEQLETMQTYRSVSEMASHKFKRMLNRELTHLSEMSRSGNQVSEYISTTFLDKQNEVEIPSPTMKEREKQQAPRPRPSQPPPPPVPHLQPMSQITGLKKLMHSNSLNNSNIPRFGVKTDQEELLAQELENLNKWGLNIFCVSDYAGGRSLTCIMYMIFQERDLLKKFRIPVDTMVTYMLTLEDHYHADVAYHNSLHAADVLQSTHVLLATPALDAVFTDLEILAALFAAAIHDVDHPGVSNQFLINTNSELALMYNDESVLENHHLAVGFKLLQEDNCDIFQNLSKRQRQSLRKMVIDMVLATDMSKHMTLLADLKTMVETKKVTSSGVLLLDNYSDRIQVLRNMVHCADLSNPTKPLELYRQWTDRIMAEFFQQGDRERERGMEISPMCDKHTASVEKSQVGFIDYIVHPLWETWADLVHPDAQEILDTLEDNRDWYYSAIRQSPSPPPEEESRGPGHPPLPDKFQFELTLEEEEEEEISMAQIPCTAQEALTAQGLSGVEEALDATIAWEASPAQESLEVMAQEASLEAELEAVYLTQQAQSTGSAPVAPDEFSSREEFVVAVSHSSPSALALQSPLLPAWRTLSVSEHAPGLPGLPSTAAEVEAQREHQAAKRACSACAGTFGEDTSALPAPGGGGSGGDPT
Sequence of Cannabinoid receptor 1 (P21554 whole entry): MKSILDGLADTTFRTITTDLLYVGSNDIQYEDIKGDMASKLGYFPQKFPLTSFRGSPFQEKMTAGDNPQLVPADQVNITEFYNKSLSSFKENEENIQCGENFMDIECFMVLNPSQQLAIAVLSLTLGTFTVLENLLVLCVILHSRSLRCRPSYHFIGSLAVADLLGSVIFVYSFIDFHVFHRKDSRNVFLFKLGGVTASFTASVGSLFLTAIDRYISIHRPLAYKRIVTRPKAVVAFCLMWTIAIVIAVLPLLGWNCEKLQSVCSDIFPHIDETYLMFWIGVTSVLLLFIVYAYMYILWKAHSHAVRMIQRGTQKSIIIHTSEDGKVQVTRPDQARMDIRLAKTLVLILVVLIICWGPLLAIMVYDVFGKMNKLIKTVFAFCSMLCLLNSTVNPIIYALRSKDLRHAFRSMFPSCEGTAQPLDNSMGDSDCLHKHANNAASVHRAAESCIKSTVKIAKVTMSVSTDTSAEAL
Sequence of Mu-type opioid receptor (P35372 whole entry): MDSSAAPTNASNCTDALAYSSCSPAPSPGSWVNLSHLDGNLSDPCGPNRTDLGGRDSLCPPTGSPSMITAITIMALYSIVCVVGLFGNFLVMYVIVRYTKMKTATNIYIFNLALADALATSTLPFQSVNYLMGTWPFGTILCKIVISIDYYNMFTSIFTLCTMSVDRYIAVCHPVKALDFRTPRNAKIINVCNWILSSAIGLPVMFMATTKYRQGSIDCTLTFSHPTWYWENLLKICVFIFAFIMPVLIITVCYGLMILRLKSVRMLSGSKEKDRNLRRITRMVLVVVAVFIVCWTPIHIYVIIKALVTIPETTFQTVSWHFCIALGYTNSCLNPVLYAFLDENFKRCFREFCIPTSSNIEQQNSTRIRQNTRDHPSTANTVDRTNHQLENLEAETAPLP
Sequence of Acetylcholinesterase (P22303 whole entry): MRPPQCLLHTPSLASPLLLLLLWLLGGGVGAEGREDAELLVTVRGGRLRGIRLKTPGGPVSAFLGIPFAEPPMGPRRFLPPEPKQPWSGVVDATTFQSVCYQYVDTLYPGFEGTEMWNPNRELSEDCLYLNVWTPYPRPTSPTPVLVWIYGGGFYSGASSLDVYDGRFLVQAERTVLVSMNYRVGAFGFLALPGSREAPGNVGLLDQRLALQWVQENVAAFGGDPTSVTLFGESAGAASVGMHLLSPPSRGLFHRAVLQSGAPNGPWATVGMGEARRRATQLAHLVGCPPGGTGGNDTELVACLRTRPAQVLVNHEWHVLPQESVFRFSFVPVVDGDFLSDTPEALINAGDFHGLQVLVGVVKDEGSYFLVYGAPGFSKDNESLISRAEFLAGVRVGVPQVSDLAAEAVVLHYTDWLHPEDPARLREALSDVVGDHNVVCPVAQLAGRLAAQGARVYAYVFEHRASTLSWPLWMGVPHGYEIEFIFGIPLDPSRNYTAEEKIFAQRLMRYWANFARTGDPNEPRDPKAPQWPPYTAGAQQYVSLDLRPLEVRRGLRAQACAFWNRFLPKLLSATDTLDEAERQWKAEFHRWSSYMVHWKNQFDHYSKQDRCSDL
Sequence of Prostaglandin G/H synthase 1 (P23219 whole entry): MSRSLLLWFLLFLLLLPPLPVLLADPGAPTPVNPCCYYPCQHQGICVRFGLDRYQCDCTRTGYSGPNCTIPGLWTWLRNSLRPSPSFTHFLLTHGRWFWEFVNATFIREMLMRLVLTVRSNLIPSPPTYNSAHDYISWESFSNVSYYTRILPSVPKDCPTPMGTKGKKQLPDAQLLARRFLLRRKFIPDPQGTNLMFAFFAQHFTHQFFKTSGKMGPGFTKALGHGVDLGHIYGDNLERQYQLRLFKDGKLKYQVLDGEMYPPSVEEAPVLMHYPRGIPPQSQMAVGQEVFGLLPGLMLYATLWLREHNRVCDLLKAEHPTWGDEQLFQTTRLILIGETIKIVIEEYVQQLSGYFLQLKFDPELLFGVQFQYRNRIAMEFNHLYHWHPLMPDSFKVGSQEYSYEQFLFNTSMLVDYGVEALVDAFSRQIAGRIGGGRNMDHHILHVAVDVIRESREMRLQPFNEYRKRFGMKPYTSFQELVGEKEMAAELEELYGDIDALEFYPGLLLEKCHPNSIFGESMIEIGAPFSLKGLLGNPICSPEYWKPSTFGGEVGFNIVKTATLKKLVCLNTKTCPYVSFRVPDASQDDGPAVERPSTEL

SMILES | AC50 (Cannabinoid receptor 1) | AC50 (Adenosine receptor A3) | other results
CC[C@@H](CO)NC(=O)[C@@H]1C=C2c3cccc4c3c(cn4C)C[C@H]2N(C)C1 [METHYSERGIDE] | > 30 µM | > 30 µM | –
CN[C@@H]1[C@H](O[C@H]2[C@H](O[C@H]3[C@H](O)[C@@H](O)[C@H](NC(=N)N)[C@@H](O)[C@@H]3NC(=N)N)O[C@@H](C)[C@]2(O)CO)O[C@@H](CO)[C@H](O)[C@H]1O [DIHYDROSTREPTOMYCIN] | – | – | AC50 [1]: > 30 µM; AC50 (Acetylcholinesterase): > 30 µM; AC50 [2]: > 30 µM; AC50 [3]: > 30 µM; AC50 [4]: > 30 µM; AC50 [5]: > 30 µM; AC50 (Prothrombin): > 30 µM; AC50 (Mu-type opioid receptor): > 30 µM; AC50 (D(1A) dopamine receptor): > 30 µM
CC(C)[C@H](N)C(=O)OCCOCn1cnc2c(=O)[nH]c(N)nc21 [VALACYCLOVIR] | > 30 µM | > 30 µM | –
O=C(O)Cc1ccccc1Nc1c(Cl)cccc1Cl [DICLOFENAC] | > 30 µM | > 30 µM | AC50 [1]: > 3 µM; AC50 (Acetylcholinesterase): > 3 µM; AC50 [6]: > 3 µM; AC50 [3]: > 3 µM; AC50 [4]: > 3 µM; AC50 [5]: > 3 µM; AC50 (Prothrombin): > 3 µM; AC50 (Mu-type opioid receptor): > 3 µM; AC50 (D(1A) dopamine receptor): > 3 µM
C[C@]12C=CC(=O)C=C1CC[C@H]1[C@@H]3C[C@@H](O)[C@](O)(C(=O)CO)[C@@]3(C)C[C@H](O)[C@@]12F [TRIAMCINOLONE] | – | – | AC50 [1]: > 30 µM; AC50 (Acetylcholinesterase): > 30 µM; AC50 [2]: > 30 µM; AC50 [6]: > 30 µM; AC50 [3]: > 30 µM; AC50 [4]: > 30 µM; AC50 [5]: > 30 µM; AC50 (Prothrombin): > 30 µM; AC50 (Mu-type opioid receptor): > 30 µM; AC50 (D(1A) dopamine receptor): > 30 µM
CC(C)(O/N=C(\C(=O)N[C@@H]1C(=O)N2C(C(=O)[O-])=C(C[n+]3ccccc3)CS[C@H]12)c1csc(N)n1)C(=O)O [CEFTAZIDIME] | > 300 µM | > 300 µM | –
CN(CCOc1ccc(CC2SC(=O)NC2=O)cc1)c1ccccn1 (stereo unspecified) [ROSIGLITAZONE] | > 30 µM | > 30 µM | –
CC(C(=O)O)c1ccc2oc(-c3ccc(Cl)cc3)nc2c1 (stereo unspecified) [BENOXAPROFEN] | > 30 µM | > 30 µM | –
Cc1nnc(SCC2=C(C(=O)O)N3C(=O)[C@@H](NC(=O)Cn4cnnn4)[C@H]3SC2)s1 [CEFAZOLIN] | > 300 µM | > 300 µM | –
Clc1ccc(Cn2c(CN3CCCC3)nc3ccccc32)cc1 [CLEMIZOLE] | > 30 µM | > 30 µM | –
CNC(=C[N+](=O)[O-])NCCSCc1csc(CN(C)C)n1 [NIZATIDINE] | – | > 10 µM | –
CCCCCCCN(CC)CCCC(O)c1ccc(NS(C)(=O)=O)cc1 (stereo unspecified) [IBUTILIDE] | – | > 30 µM | –
Cc1onc(-c2c(F)cccc2Cl)c1C(=O)N[C@@H]1C(=O)N2[C@@H]1SC(C)(C)[C@@H]2C(=O)O [FLOXACILLIN] | > 30 µM | > 30 µM | –
CC(C)Cc1ccc([C@H](C)C(=O)O)cc1 [DEXIBUPROFEN] | > 30 µM | > 30 µM | –
S=P(N1CC1)(N1CC1)N1CC1 [THIOTEPA] | > 30 µM | > 30 µM | –
CCC(=O)O[C@]1(C(=O)CCl)[C@@H](C)C[C@H]2[C@@H]3CCC4=CC(=O)C=C[C@]4(C)[C@@]3(F)[C@@H](O)C[C@@]21C [CLOBETASOL PROPIONATE] | > 30 µM | > 30 µM | –
CCOc1cc([C@@H](CS(C)(=O)=O)N2C(=O)c3cccc(NC(C)=O)c3C2=O)ccc1OC | > 30 µM | > 30 µM | –
